# Data reported in patent US8497385B2, “Bryostatin analogues, synthetic methods and uses” (The Board of Trustees of the Leland Stanford Junior …, priority 2007, dated 2013).
# Assays:
# Type in all cases: cell-based, human
# CAKI-1 = assay: NCI growth inhibition, CAKI-1 (Renal); conditions: CAKI-1, Renal
# SK-MEL-28 = assay: NCI growth inhibition, SK-MEL-28 (Melanoma); conditions: SK-MEL-28, Melanoma
# TK-10 = assay: NCI growth inhibition, TK-10 (Renal); conditions: TK-10, Renal
# KM12 = assay: NCI growth inhibition, KM12 (Colon); conditions: KM12, Colon
# SK-OV-3 = assay: NCI growth inhibition, SK-OV-3 (Ovarian); conditions: SK-OV-3, Ovarian
# SF-268 = assay: NCI growth inhibition, SF-268 (CNS); conditions: SF-268, CNS
# MOLT-4 = assay: NCI growth inhibition, MOLT-4 (Leukemia); conditions: MOLT-4, Leukemia
# 786-0 = assay: NCI growth inhibition, 786-0 (Renal); conditions: 786-0, Renal
# HS 578T = assay: NCI growth inhibition, HS 578T (Breast); conditions: Breast
# SF-539 = assay: NCI growth inhibition, SF-539 (CNS); conditions: SF-539, CNS
# NCI/ADR-RES = assay: NCI growth inhibition, NCI/ADR-RES (Breast)
# OVCAR-3 = assay: NCI growth inhibition, OVCAR-3 (Ovarian); conditions: OVCAR-3, Ovarian
# MDA-MB-231/ATCC = assay: NCI growth inhibition, MDA-MB-231/ATCC (Breast); conditions: Breast
# SK-MEL-2 = assay: NCI growth inhibition, SK-MEL-2 (Melanoma); conditions: SK-MEL-2, Melanoma
# ACHN = assay: NCI growth inhibition, ACHN (Renal); conditions: Renal
# HCT-116 = assay: NCI growth inhibition, HCT-116 (Colon); conditions: HCT-116, Colon
# MCF7 = assay: NCI growth inhibition, MCF7 (Breast); conditions: MCF7, Breast
# IGROVI = assay: NCI growth inhibition, IGROVI (Ovarian); conditions: Ovarian
# DU-145 = assay: NCI growth inhibition, DU-145 (Prostate); conditions: DU-145, Prostate
# OVCAR-8 = assay: NCI growth inhibition, OVCAR-8 (Ovarian); conditions: OVCAR-8, Ovarian
# HT29 = assay: NCI growth inhibition, HT29 (Colon); conditions: HT29, Colon
# HOP-92 = assay: NCI growth inhibition, HOP-92 (NSC Lung); conditions: HOP-92, NSC Lung
# HCC-2998 = assay: NCI growth inhibition, HCC-2998 (Colon); conditions: HCC-2998, Colon
# OVCAR-4 = assay: NCI growth inhibition, OVCAR-4 (Ovarian); conditions: OVCAR-4, Ovarian
# MDA-MB-435 = assay: NCI growth inhibition, MDA-MB-435 (Breast); conditions: MDA-MB-435, Breast
# RXF-393 = assay: NCI growth inhibition, RXF-393 (Renal)
# NCI-H460 = assay: NCI growth inhibition, NCI-H460 (NSC Lung); conditions: NCI-H460, NSC Lung
# HCT-15 = assay: NCI growth inhibition, HCT-15 (Colon)
# A498 = assay: NCI growth inhibition, A498 (Renal); conditions: A498, Renal
# MDA-N = assay: NCI growth inhibition, MDA-N (Breast)
# SK-MEL-5 = assay: NCI growth inhibition, SK-MEL-5 (Melanoma); conditions: SK-MEL-5, Melanoma
# COLO 205 = assay: NCI growth inhibition, COLO 205 (Colon); conditions: COLO 205, Colon
# NCI-H322M = assay: NCI growth inhibition, NCI-H322M (NSC Lung); conditions: NSC Lung
# HOP-62 = assay: NCI growth inhibition, HOP-62 (NSC Lung)
# K-562 = assay: NCI growth inhibition, K-562 (Leukemia); conditions: K-562, Leukemia
# A549/ATCC = assay: NCI growth inhibition, A549/ATCC (NSC Lung); conditions: NSC Lung
# MI4 = assay: NCI growth inhibition, MI4 (Melanoma); conditions: MI4, Melanoma
# HL-60(TB) = system: HL-60(TB)
# MALME-3M = assay: NCI growth inhibition, MALME-3M (Melanoma)
# NCI-H522 = assay: NCI growth inhibition, NCI-H522 (NSC Lung)
# BT-549 = assay: NCI growth inhibition, BT-549 (Breast); conditions: BT-549, Breast
# SNB-19 = assay: NCI growth inhibition, SNB-19 (CNS); conditions: SNB-19, CNS
# EKVX = assay: NCI growth inhibition, EKVX (NSC Lung); conditions: NSC Lung
# RPMI-8226 = assay: NCI growth inhibition, RPMI-8226 (Leukemia); conditions: RPMI-8226, Leukemia
# UO-31 = assay: NCI growth inhibition, UO-31 (Renal); conditions: UO-31, Renal
# NCI-H23 = assay: NCI growth inhibition, NCI-H23 (NSC Lung)
# SF-295 = assay: NCI growth inhibition, SF-295 (CNS); conditions: SF-295, CNS
# SW-620 = assay: NCI growth inhibition, SW-620 (Colon); conditions: SW-620, Colon
# OVCAR-5 = assay: NCI growth inhibition, OVCAR-5 (Ovarian); conditions: OVCAR-5, Ovarian
# CCRF-CEM = assay: NCI growth inhibition, CCRF-CEM (Leukemia); conditions: Leukemia
# PC-3 = assay: NCI growth inhibition, PC-3 (Prostate); conditions: PC-3, Prostate
# T-47D = assay: NCI growth inhibition, T-47D (Breast); conditions: Breast
# SNB-75 = assay: NCI growth inhibition, SNB-75 (CNS); conditions: SNB-75, CNS
# SN12C = assay: NCI growth inhibition, SN12C (Renal); conditions: Renal
# UACC-257 = assay: NCI growth inhibition, UACC-257 (Melanoma); conditions: UACC-257, Melanoma
# NCI-H226 = assay: NCI growth inhibition, NCI-H226 (NSC Lung)
# U251 = assay: NCI growth inhibition, U251 (CNS); conditions: U251, CNS
# SR = assay: NCI growth inhibition, SR (Leukemia); conditions: Leukemia
# LOX IMVI = assay: NCI growth inhibition, LOX IMVI (Melanoma); conditions: Melanoma
# UACC-62 = assay: NCI growth inhibition, UACC-62 (Melanoma); conditions: UACC-62, Melanoma
compound,measurement,setting,value
"CCC/C=C/C=C/C(=O)O[C@H]1/C(=C/C(=O)OC)C[C@H]2C[C@H]([C@@H](C)O)OC(=O)C[C@H](O)C[C@@H]3C[C@H](OC(C)=O)C(C)(C)[C@](O)(C[C@@H]4C/C(=C/C(=O)OC)C[C@H](/C=C/C(C)(C)[C@]1(O)O2)O4)O3 [Bryo-1, Bryostatin-1, reference compound]",GI50,CAKI-1,−5.40 log of molar concentration
same,GI50,SK-MEL-28,−5.10 log of molar concentration
same,GI50,TK-10,>−5 log of molar concentration
same,GI50,KM12,−5.20 log of molar concentration
same,GI50,SK-OV-3,−5.10 log of molar concentration
same,GI50,SF-268,−5.10 log of molar concentration
same,GI50,MOLT-4,−5.50 log of molar concentration
same,GI50,786-0,−5.20 log of molar concentration
same,GI50,HS 578T,−5.2 log of molar concentration
same,GI50,SF-539,>−5 log of molar concentration
same,GI50,NCI/ADR-RES,>−5 log of molar concentration
same,GI50,OVCAR-3,−5.10 log of molar concentration
same,GI50,MDA-MB-231/ATCC,−5.20 log of molar concentration
same,GI50,SK-MEL-2,−5.20 log of molar concentration
same,GI50,ACHN,−5.50 log of molar concentration
same,GI50,HCT-116,−5.30 log of molar concentration
same,GI50,MCF7,−5.20 log of molar concentration
same,GI50,IGROVI,−5.30 log of molar concentration
same,GI50,DU-145,>−5 log of molar concentration
same,GI50,OVCAR-8,−5.10 log of molar concentration
same,GI50,HT29,−5.30 log of molar concentration
same,GI50,HOP-92,−5.30 log of molar concentration
same,GI50,HCC-2998,−5.30 log of molar concentration
same,GI50,OVCAR-4,−5.50 log of molar concentration
same,GI50,MDA-MB-435,−5.10 log of molar concentration
same,GI50,RXF-393,−5.30 log of molar concentration
same,GI50,NCI-H460,−5.60 log of molar concentration
same,GI50,HCT-15,>−5 log of molar concentration
same,GI50,A498,>−5 log of molar concentration
same,GI50,MDA-N,−5.10 log of molar concentration
same,GI50,SK-MEL-5,−5.70 log of molar concentration
same,GI50,COLO 205,−5.40 log of molar concentration
same,GI50,NCI-H322M,−6.00 log of molar concentration
same,GI50,HOP-62,>−5 log of molar concentration
same,GI50,K-562,−5.40 log of molar concentration
same,GI50,A549/ATCC,−5.20 log of molar concentration
same,GI50,MI4,>−5 log of molar concentration
same,GI50,HL-60(TB),−5.70 log of molar concentration
same,GI50,MALME-3M,−5.20 log of molar concentration
same,GI50,NCI-H522,>−5 log of molar concentration
same,GI50,BT-549,−5.10 log of molar concentration
same,GI50,SNB-19,>−5 log of molar concentration
same,GI50,EKVX,−5.30 log of molar concentration
same,GI50,RPMI-8226,>−5 log of molar concentration
same,GI50,UO-31,−5.60 log of molar concentration
same,GI50,NCI-H23,>−5 log of molar concentration
same,GI50,SF-295,−5.20 log of molar concentration
same,GI50,SW-620,−5.50 log of molar concentration
same,GI50,OVCAR-5,>−5 log of molar concentration
same,GI50,CCRF-CEM,−5.30 log of molar concentration
same,GI50,PC-3,−5.30 log of molar concentration
same,GI50,T-47D,−5.20 log of molar concentration
same,GI50,SNB-75,−5.50 log of molar concentration
same,GI50,SN12C,−5.10 log of molar concentration
same,GI50,UACC-257,−5.10 log of molar concentration
same,GI50,NCI-H226,>−5 log of molar concentration
same,GI50,U251,−5.10 log of molar concentration
same,GI50,SR,>−5 log of molar concentration
same,GI50,LOX IMVI,−5.10 log of molar concentration
same,GI50,UACC-62,−5.30 log of molar concentration
